Patent US6319702A, “Nucleic acids encoding mutant human carboxypeptidase A enzymes” (Glaxo Wellcome, Inc., priority 1993, dated 2001)
Where two headings read alike, the source gives them in different places.

Columns and labels:
mutant enzyme = experiment: Substrate behaviour with mutant enzyme; type: biochemical, human
Source text: This type of compound is not useful for ADEPT.

[1] = target: T1, wild type human carboxypeptidase A1 (Homo sapiens, UniProt P15085); experiment: Enzyme kinetics of prodrugs with wild type human carboxypeptidase A1 (coupled assay); type: biochemical
T1 sequence (P15085 111-419): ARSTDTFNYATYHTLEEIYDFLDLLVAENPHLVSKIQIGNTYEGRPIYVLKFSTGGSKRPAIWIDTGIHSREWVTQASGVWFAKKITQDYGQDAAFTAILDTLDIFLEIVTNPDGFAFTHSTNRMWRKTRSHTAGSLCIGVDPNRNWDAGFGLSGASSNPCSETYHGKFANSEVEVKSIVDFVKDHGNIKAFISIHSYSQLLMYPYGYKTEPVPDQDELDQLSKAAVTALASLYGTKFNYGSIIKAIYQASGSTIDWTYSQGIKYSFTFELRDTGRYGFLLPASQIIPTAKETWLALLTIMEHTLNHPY
Source text: As indicated herein, the in vivo stable prodrug of the present invention should be a better substrate for a mutant enzyme than the corresponding wild type enzyme in order for the stable prodrug to be activated selectively at the tumour. […] The most relevant kinetic constant in the table is the kcat/Km, which provides an estimate of the second order rate constant for the enzyme catalyzed conversion of prodrug to methotrexate. Thus, the larger the kcat/Km, the more efficient the enzyme with a particular substrate. […] Thus, the single mutation at 268 from thr to gly converted very poor substrates in the wild type enzyme to excellent substrates in the mutant enzyme. […] Thus, the compounds are much better substrates for the mutant enzyme than the wild type enzyme which permits very specific tumor targeted activation of the nontoxic, stable prodrug to the active agent.
Kinetics were determined by a modification of the coupled assay of Kuefner, et al (1989) Biochemistry 28 2288-2297 in which the product MTX is converted by excess carboxypeptidase G to the pteroate of MTX. In this assay the reaction is followed spectrophotometrically at 315 nm; at this wavelength the change in molar absorbtivity for the coupled reaction was determined to be 9.57 mM^-1 cm^-1. Assays were performed at 25° C. in 25 mM tris-HCl, 100 mM NaCl, pH 7.4. Prodrugs were preincubated at 25° C. with buffer and 17 milliunits of Sigma #C-9658 carboxypeptidase G in 1 ml total volume. Assay was initiated with carboxypeptidase A or the appropriate mutant. Initial velocities were obtained, and standard Michaelis-Menten calculations were used to determine kinetic constants (in Biochemistry, Lehninger, A. L. 1970, Worth Publishers, Inc, NY).

[2] = Stability and biodistribution of prodrugs in vivo (HPLC of plasma and tissues); design: species or system mice (CD-1 nude; BALB/C where indicated); conditions: for concentration of prodrug in cecum / concentration of prodrug in feces / concentration of prodrug in kidney / concentration of prodrug in large intestine / concentration of prodrug in liver / concentration of prodrug in small intestine / concentration of prodrug in spleen / concentration of prodrug in tumor / remaining at 0.5 h / remaining at 2 h / concentration at 0.5 h: 50 mg/kg i.p. or i.v., CD-1 nude mice; for stability in vivo (in words): mice; for stability in vivo (in words) / remaining at 0.5 h / remaining at 2 h / concentration at 0.5 h: 50 mg/kg; for remaining at 0.5 h / remaining at 2 h / concentration at 0.5 h: mouse; for concentration at 0.5 h: read-out: concentration of prodrug in plasma
[3] = cecum, CECUM, 30 min, read-out: stability: percentage of material observed as intact prodrug, cecum
[4] = cecum, CECUM, 120 min, read-out: stability: percentage of material observed as intact prodrug, cecum
[5] = feces, FECES, 30 min, read-out: stability: percentage of material observed as intact prodrug, feces (converted)
[6] = feces, FECES, 120 min, read-out: stability: percentage of material observed as intact prodrug, feces
[7] = kidney, KIDNEY, 30 min, read-out: stability: percentage of material observed as intact prodrug, kidney
[8] = large intestine, LARGE INTESTINE, 30 min, read-out: stability: percentage of material observed as intact prodrug, large intestine
[9] = large intestine, LARGE INTESTINE, 120 min, read-out: stability: percentage of material observed as intact prodrug, large intestine
[10] = liver, LIVER, 30 min, read-out: stability: percentage of material observed as intact prodrug, liver (converted)
[11] = liver, LIVER, 120 min, read-out: stability: percentage of material observed as intact prodrug, liver
[12] = plasma, PLASMA, 30 min, read-out: stability: percentage of material observed as intact prodrug, plasma
[13] = small intestine, SMALL INTESTINE, 30 min, read-out: stability: percentage of material observed as intact prodrug, small intestine
[14] = small intestine, SMALL INTESTINE, 120 min, read-out: stability: percentage of material observed as intact prodrug, small intestine
[15] = spleen, SPLEEN, 30 min, read-out: stability: percentage of material observed as intact prodrug, spleen

Row | Compound | substrate for a mutant enzyme (in words) (mutant enzyme) | substrate for wild type CPA (in words) [1] | concentration of prodrug in cecum ([2]; CECUM, 30 min) | concentration of prodrug in cecum ([2]; CECUM, 120 min) [nmol/g] | concentration of prodrug in feces ([2]; FECES, 30 min) [nmol/g] | concentration of prodrug in feces ([2]; FECES, 120 min) [nmol/g] | concentration of prodrug in kidney ([2]; KIDNEY, 30 min) [nmol/g] | concentration of prodrug in large intestine ([2]; LARGE INTESTINE, 30 min) [nmol/g] | concentration of prodrug in large intestine ([2]; LARGE INTESTINE, 120 min) [nmol/g] | concentration of prodrug in liver ([2]; LIVER, 30 min) [nmol/g] | concentration of prodrug in liver ([2]; LIVER, 120 min) [nmol/g] | concentration of prodrug in small intestine ([2]; SMALL INTESTINE, 30 min) [nmol/g] | concentration of prodrug in small intestine ([2]; SMALL INTESTINE, 120 min) [nmol/g] | concentration of prodrug in spleen ([2]; SPLEEN, 30 min) [nmol/g] | stability in vivo (in words) [2] | remaining at 0.5 h [2, 3] [%] | remaining at 2 h [2, 4] [%] | remaining at 0.5 h [2, 5] [%] | remaining at 2 h [2, 6] [%] | remaining at 0.5 h [2, 7] [%] | further results
1 | CN(Cc1cnc2nc(N)nc(N)c2n1)c1ccc(C(=O)N[C@@H](CCC(=O)O)C(=O)N[C@@H](Cc2cccc(C3CCC3)c2)C(=O)O)cc1 [Prodrug 11] | good substrates for a mutant enzyme | not for the wild type enzyme | 4.5 nmol/g | 0.8 | 426.8 | 389.8 | 7.3 | 2.7 | 4.4 | 53.8 | 47.8 | 301.3 | 140.0 | 2.7 | stable in vivo | 100 | 100 | 92.3 | 67.9 | 83.5 | concentration of prodrug in kidney ([2]; KIDNEY, 120 min): 3.0 nmol/g; concentration of prodrug in tumor ([2]; TUMOR, 30 min): 4.8 nmol/g; concentration of prodrug in tumor ([2]; TUMOR, 120 min): 2.4 nmol/g; remaining at 2 h ([2]; kidney, KIDNEY, 120 min, read-out: stability: percentage of material observed as intact prodrug, kidney): 82.3%; remaining at 0.5 h [2, 8]: 74.5%; remaining at 2 h [2, 9]: 85%; remaining at 0.5 h [2, 10]: 81.3%; remaining at 2 h [2, 11]: 73.3%; concentration at 0.5 h ([2]; plasma, PLASMA, 30 min): 22.2 µM; remaining at 0.5 h [2, 12]: 97.1%; remaining at 0.5 h [2, 13]: 86.7%; remaining at 2 h [2, 14]: 67.7%; remaining at 0.5 h [2, 15]: 96.5%; remaining at 0.5 h ([2]; tumor, TUMOR, 30 min, read-out: stability: percentage of material observed as intact prodrug, tumor): 100%; remaining at 2 h ([2]; tumor, TUMOR, 120 min, read-out: stability: percentage of material observed as intact prodrug, tumor): 88.1%
2 | Nc1nc(N)c(CCCNc2ccc(C(=O)N[C@@H](CCC(=O)O)C(=O)N[C@@H](Cc3cccc(C4CCCC4)c3)C(=O)O)cc2)c(=O)[nH]1 [Prodrug 14, N-(4-((3(2,4-diamino-1,6-dihydro-6-oxo-5-pyrimidinyl)propyl)amino)benzoyl)-L-glutam-1-yl-3-cyclopentyl-L-phenylalanine] | good substrates for a mutant enzyme | not for the wild type enzyme | 4.l | 65.3 | 535.0 | 932.8 | 4.6 | 9.4 | 34.6 | 22.5 | 42.1 | 218.3 | 127.8 | 2.4 | stable in vivo | 100 | 48.8 | 90.7 | 88 | 100 | remaining at 0.5 h [2, 8]: 100%; remaining at 2 h [2, 9]: 76.8%; remaining at 0.5 h [2, 10]: 100%; remaining at 2 h [2, 11]: 100%; concentration at 0.5 h ([2]; plasma, PLASMA, 30 min): 1.1 µM; remaining at 0.5 h [2, 12]: 100%; remaining at 0.5 h [2, 13]: 100%; remaining at 2 h [2, 14]: 100%; remaining at 0.5 h [2, 15]: 100%
